{"source": "patent US20240118265A1", "about": "“MATERIALS AND METHODS TO IMPROVE IN VITRO TOXICITY PREDICTIONS” (priority 2022, published 2024)", "key": {"[1]": {"test_system": "RhCE tissues", "conditions": "without DM test; cited from earlier work"}, "[2]": {"assay": "Depth of Migration (DM) test", "format": "physicochemical"}, "[3]": {"test_system": "eye", "conditions": "cited from earlier work"}, "[4]": {"test_system": "cultured epithelium", "conditions": "cited from earlier work"}, "[5]": {"test_system": "bovine cornea", "conditions": "cited from earlier work"}, "[6]": {"test_system": "isolated chicken eye", "conditions": "without DM test; cited from earlier work"}, "[7]": {"conditions": "1:100 dilution in DM dye solution, 30 μL, 15° platform, after 30-120 seconds, table value"}}, "note": "Read-outs that look alike come from different tables or passages of the source."}
{"molecule": "Cc1c(COC(=O)[C@@H]2[C@H](/C=C(\\Cl)C(F)(F)F)C2(C)C)cccc1-c1ccccc1", "note": "(racemic) [Bifenthrin]", "values": [{"measurement": "EpiOcular prediction versus in vivo", "setting": "[1]", "result": "false negatives"}, {"measurement": "DM Distance Traveled", "setting": "[2]; [7]", "result": 4.5, "unit": "cm"}, {"measurement": "in vivo GHS", "setting": "[3]; GHS category", "result": "Cat. 2"}]}
{"molecule": "CCCCOc1ccc(OCCCC)cc1", "note": "[1,4-dibutoxy benzene]", "values": [{"measurement": "EpiOcular prediction versus in vivo", "setting": "[1]", "result": "false negatives"}, {"measurement": "DM Distance Traveled", "setting": "[2]; [7]", "result": 4.5, "unit": "cm"}, {"measurement": "in vivo GHS", "setting": "[3]; GHS category", "result": "Cat. 2"}]}
{"molecule": "CCCOCC(C)OCC(C)O", "note": "(stereo not drawn) [1-(1-methyl-2-propoxyethoxy)propan-2-ol]", "values": [{"measurement": "Short Time Exposure (STE) prediction versus in vivo", "setting": "[4]", "result": "false negatives"}, {"measurement": "DM Distance Traveled", "setting": "[2]", "result": 4.5, "unit": "cm"}, {"measurement": "in vivo GHS", "setting": "[3]; rabbit, in vivo", "result": "Cat. 2"}]}
{"molecule": "CC(C)(O)CCC(C)(C)O", "note": "[2,5-Dimethyl-2,5-hexanediol]", "values": [{"measurement": "Short Time Exposure (STE) prediction versus in vivo", "setting": "[4]; without DM test", "result": "false negatives"}, {"measurement": "DM Distance Traveled", "setting": "[2]; [7]", "result": 4.5, "unit": "cm"}, {"measurement": "in vivo GHS", "setting": "[3]; GHS category", "result": "Cat. 1"}]}
{"molecule": "O=C(Cl)c1c(Cl)cccc1Cl", "note": "[2,6-Dichlorobenzoyl chloride]", "values": [{"measurement": "Short Time Exposure (STE) prediction versus in vivo", "setting": "[4]; without DM test", "result": "false negatives"}, {"measurement": "DM Distance Traveled", "setting": "[2]; [7]", "result": 4.5, "unit": "cm"}, {"measurement": "in vivo GHS", "setting": "[3]; GHS category", "result": "Cat. 2"}]}
{"molecule": "CC(C)(C)CC(C)(C)c1ccc(O)cc1", "note": "[4-(1,1,3,3-Tetramethylbutyl)phenol]", "values": [{"measurement": "BCOP prediction versus in vivo", "setting": "[5]; without DM test", "result": "false negatives"}, {"measurement": "DM Distance Traveled", "setting": "[2]", "result": 4.5, "unit": "cm"}, {"measurement": "in vivo GHS", "setting": "[3]; GHS category", "result": "Cat. 1"}]}
{"molecule": "O=Cc1ccc(C(=O)O)cc1", "note": "[4-carboxybenzaldehyde]", "values": [{"measurement": "ICE prediction versus in vivo", "setting": "[6]", "result": "false negatives"}, {"measurement": "DM Distance Traveled", "setting": "[2]; [7]", "result": 4.5, "unit": "cm"}, {"measurement": "in vivo GHS", "setting": "[3]; GHS category", "result": "Cat. 2"}]}
{"molecule": "CC(=O)O[C@H]1NC(=O)[C@@H]1[C@@H](C)O[Si](C)(C)C(C)(C)C", "note": "[(2R,3R)-3-((R)-1-(tert-Butyldimethylsiloxy)ethyl)-4-oxoazetidin-2-yl acetate]", "values": [{"measurement": "BCOP prediction versus in vivo", "setting": "[5]; without DM test", "result": "false negatives"}, {"measurement": "DM Distance Traveled", "setting": "[2]; [7]", "result": 4.5, "unit": "cm"}, {"measurement": "in vivo GHS", "setting": "[3]; GHS category", "result": "Cat. 2"}]}
{"molecule": "C=C1C2CCC(C2)C1(C)C", "note": "(stereo not drawn) [Camphene]", "values": [{"measurement": "DM Distance Traveled", "setting": "[2]; [7]", "result": 4.5, "unit": "cm"}]}
{"molecule": "CCO", "note": "[Ethanol]", "values": [{"measurement": "Short Time Exposure (STE) prediction versus in vivo", "setting": "[4]; without DM test", "result": "false negatives"}, {"measurement": "DM Distance Traveled", "setting": "[2]; [7]", "result": 4.5, "unit": "cm"}, {"measurement": "in vivo GHS", "setting": "[3]; GHS category", "result": "Cat. 2"}]}
{"molecule": "CCOC(=O)CC(=O)c1cc(F)c(Cl)nc1Cl", "note": "[Ethyl 2,6-dichloro-5-fluoro-beta-oxo-3-pyridine propionate]", "values": [{"measurement": "BCOP prediction versus in vivo", "setting": "[5]", "result": "false negatives"}, {"measurement": "DM Distance Traveled", "setting": "[2]; [7]", "result": 4.5, "unit": "cm"}, {"measurement": "in vivo GHS", "setting": "[3]; rabbit, in vivo", "result": "Cat. 2"}]}
{"molecule": "C=CC(=O)OCCO", "note": "[Hydroxyethyl acrylate]", "values": [{"measurement": "DM Distance Traveled", "setting": "[2]", "result": 4.5, "unit": "cm"}]}
{"molecule": "c1ccc2c(c1)CCc1ccccc1N2", "note": "[Iminodibenzyl]", "values": [{"measurement": "EpiOcular prediction versus in vivo", "setting": "[1]", "result": "false negatives"}, {"measurement": "DM Distance Traveled", "setting": "[2]; [7]", "result": 4.5, "unit": "cm"}, {"measurement": "in vivo GHS", "setting": "[3]; rabbit, in vivo", "result": "Cat. 1"}]}
{"molecule": "CC(C)O", "note": "[Isopropanol]", "values": [{"measurement": "Short Time Exposure (STE) prediction versus in vivo", "setting": "[4]; without DM test", "result": "false negatives"}, {"measurement": "DM Distance Traveled", "setting": "[2]; [7]", "result": 4.5, "unit": "cm"}, {"measurement": "in vivo GHS", "setting": "[3]; GHS category", "result": "Cat. 2"}]}
{"molecule": "N[C@@H](CC(=O)O)C(=O)O", "note": "[L-Aspartic acid]", "values": [{"measurement": "DM Distance Traveled", "setting": "[2]; [7]", "result": 4.5, "unit": "cm"}]}
{"molecule": "COC(C)=O", "note": "[Methyl acetate]", "values": [{"measurement": "Short Time Exposure (STE) prediction versus in vivo", "setting": "[4]; without DM test", "result": "false negatives"}, {"measurement": "DM Distance Traveled", "setting": "[2]; [7]", "result": 4.5, "unit": "cm"}, {"measurement": "in vivo GHS", "setting": "[3]; GHS category", "result": "Cat. 2"}]}
{"molecule": "COC(=O)CC#N", "note": "[Methyl cyanoacetate]", "values": [{"measurement": "EpiOcular prediction versus in vivo", "setting": "[1]", "result": "false negatives"}, {"measurement": "Short Time Exposure (STE) prediction versus in vivo", "setting": "[4]; without DM test", "result": "false negatives"}, {"measurement": "ICE prediction versus in vivo", "setting": "[6]", "result": "false negatives"}, {"measurement": "DM Distance Traveled", "setting": "[2]; [7]", "result": 4.5, "unit": "cm"}, {"measurement": "in vivo GHS", "setting": "[3]; GHS category", "result": "Cat. 2"}]}
{"molecule": "CCCCCCCCCCCCCCO", "note": "[Myristyl alcohol]", "values": [{"measurement": "Short Time Exposure (STE) prediction versus in vivo", "setting": "[4]", "result": "false negatives"}, {"measurement": "DM Distance Traveled", "setting": "[2]; [7]", "result": 4.5, "unit": "cm"}, {"measurement": "in vivo GHS", "setting": "[3]; rabbit, in vivo", "result": "Cat. 2"}]}
{"molecule": "C/C=C/C=C/C(=O)[O-].[K+]", "note": "[Potassium sorbate]", "values": [{"measurement": "Short Time Exposure (STE) prediction versus in vivo", "setting": "[4]", "result": "false negatives"}, {"measurement": "DM Distance Traveled", "setting": "[2]", "result": 4.5, "unit": "cm"}, {"measurement": "in vivo GHS", "setting": "[3]; rabbit, in vivo", "result": "Cat. 2"}]}
{"molecule": "CCN(CC)CCCC(C)Nc1c2ccc(Cl)cc2nc2ccc(OC)cc12", "note": "(stereo not drawn) [Quinacrine]", "values": [{"measurement": "BCOP prediction versus in vivo", "setting": "[5]; without DM test", "result": "false negatives"}, {"measurement": "DM Distance Traveled", "setting": "[2]; [7]", "result": 4.5, "unit": "cm"}, {"measurement": "in vivo GHS", "setting": "[3]; rabbit, in vivo", "result": "Cat. 1"}]}
{"molecule": "O=C([O-])c1ccccc1O.[Na+]", "note": "[Sodium salicylate]", "values": [{"measurement": "Short Time Exposure (STE) prediction versus in vivo", "setting": "[4]", "result": "false negatives"}, {"measurement": "DM Distance Traveled", "setting": "[2]", "result": 4.5, "unit": "cm"}, {"measurement": "in vivo GHS", "setting": "[3]; rabbit, in vivo", "result": "Cat. 1"}]}
{"molecule": "Triton X-100 (10%)", "values": [{"measurement": "known ocular irritancy class of the chemical", "setting": "[3]; reference classification", "result": "ocular corrosive"}]}
